The values that follow are results of earlier work, collected in patent US20250041332A1, “SYSTEMIC INJECTION OF SUPERHEATED PERFLUOROCARBON EMULSION TO IMPROVE VENTILATION AND REDUCE VENTILATOR-INDUCED LUNG INJURY” (THE BOARD OF REGENTS OF THE UNIVERSITY OF TEXAS SYSTEM, priority 2021, published 2025).

Like-named read-outs stand apart in the source and are kept apart here.

For series [1] the following is noted: intravenous.

As to `FC(F)(F)C(F)(F)C(F)(F)C(F)(F)C(F)(F)C(F)(F)C(F)(F)C(F)(F)Br` [PFOB, perfluorooctyl bromide], the “Time in which half the dose is recovered from the exhaled gas” value in series [1] is 3 to 12 days. `FC(F)(F)C(F)(F)C(F)(F)C(F)(F)F` [perfluorobutane]: the Vapor pressure entry is listed as “about 330.3 kPa” (at 25° C.) and “approximately 330 kPa” (temperature not given). For `FC(F)(F)C(F)(F)C(F)(F)C(F)(F)C(F)(F)F` [perfluoropentane], for the setting “at 25° C.”, the Vapor pressure entry is “about 83.99 kPa”. For `FC(F)(F)C(F)(F)C(F)(F)F` [perfluoropropane], the Vapor pressure entry (at 21.1° C.) is recorded as “about 792 kPa”.
